{"source": "paper PMC7037732", "about": "“Synthesis of Combretastatin A-4 and 3′-Aminocombretastatin A-4 derivatives with Aminoacid Containing Pendants and Study of their Interaction with Tubulin and as Downregulators of the VEGF, hTERT and c-Myc Gene Expression” (Molecules, 2020)", "key": {"[1]": {"system": "HT-29 (human colon adenocarcinoma)", "experiment": "Inhibition of cell proliferation (MTT), HT-29", "assay_type": "cell-based", "settings": "Table 2, 48 h of treatment (footnote), average ±SD of three experiments"}, "[2]": {"system": "MCF-7 (breast adenocarcinoma)", "experiment": "Inhibition of cell proliferation (MTT), MCF-7", "assay_type": "cell-based, human", "settings": "Table 2, 48 h of treatment (footnote), average ±SD of three experiments"}, "[3]": {"system": "purified tubulin", "experiment": "Critical concentration (CrC) for the assembly of purified tubulin in GAB", "assay_type": "biochemical", "settings": "compound 27.5 μM, tubulin 25 μM, glycerol (GAB) and GTP assembly buffer; control 7.9 ± 1.2", "method": "The effect on the self-assembly of tubulin was determined by measuring the critical concentration (CrC)."}, "[4]": {"system": "A-549 cells", "experiment": "Cell cycle distribution by flow cytometry", "assay_type": "cell-based, human", "settings": "A-549, 24 h", "method_in_brief": "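A-549 cells were harvested, fixed in cold 70% ethanol (30 min, −20 °C), then stained with 50 µg/mL propidium iodide plus 100 µg/mL RNase A in PBS for 20 min at room temperature in the dark. Flow cytometry used 488 nm excitation and 620 nm emission, giving the percentage of cells in G2/M.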"}, "[5]": {"system": "VEGF gene", "experiment": "VEGF gene expression by RT-qPCR in HT-29 cells", "assay_type": "cell-based, human", "settings": "HT-29, 48 h", "method_in_brief": "(§1)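 HT-29 cells seeded at 1.5 × 10^5 per well, after 24 h exposed to compounds for 48 h at fixed single concentrations (15 μM for CA-4, otherwise nM to μM per derivative). Total RNA reverse-transcribed with oligo(dT)15; genes quantified by TaqMan RT-qPCR, β-actin as reference.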"}, "[6]": {"system": "c-Myc gene", "experiment": "c-Myc gene expression by RT-qPCR in HT-29 cells", "assay_type": "cell-based, human", "settings": "HT-29, 48 h", "method_in_brief": "as §1"}, "[7]": {"settings": "Homo sapiens, 10 nM, control 100"}, "[8]": {"settings": "discussion, concentration per compound"}, "[9]": {"settings": "Homo sapiens, 7 nM, control 100"}, "[10]": {"settings": "Homo sapiens, 4 nM, control 100"}}}
{"smiles": "COc1ccc(/C=C\\c2cc(OC)c(OC)c(OC)c2)cc1NC(=O)[C@@H](N)C(C)C", "note": "[Compound 8.3]", "values": [{"measurement": "IC50", "setting": "[1]; Homo sapiens, HT-29, 48 h", "result": "13.3 ± 0.5", "unit": "nM"}, {"measurement": "IC50", "setting": "[2]; Homo sapiens, MCF7, 48 h", "result": "13 ± 2", "unit": "nM"}, {"measurement": "CrC (critical concentration)", "setting": "[3]", "result": "9.3 ± 0.5", "unit": "µM"}, {"measurement": "G0/G1", "setting": "[4]; 2 µM", "result": "65 ± 2", "unit": "%"}, {"measurement": "G2/M", "setting": "[4]; 2 µM", "result": "15 ± 2", "unit": "%"}, {"measurement": "S", "setting": "[4]; 2 µM", "result": "20 ± 1", "unit": "%"}, {"measurement": "Effect on the cell cycle", "setting": "[4]; concentration per compound as in Tables 6 and 7", "result": "do not accumulate a high percentage of cells in phase G2/M"}, {"measurement": "mrna remaining at 0.01 µM", "setting": "[5]; [7]", "result": 33, "unit": "%"}, {"measurement": "mrna remaining at 0.01 µM", "setting": "[6]; [7]", "result": 62, "unit": "%"}]}
{"smiles": "COc1ccc(/C=C\\c2cc(OC)c(OC)c(OC)c2)cc1NC(=O)[C@@H](N)C(C)O", "note": "(stereo partly drawn) [Compound 8.7]", "values": [{"measurement": "IC50", "setting": "[1]; Homo sapiens, HT-29, 48 h", "result": "8 ± 2", "unit": "nM"}, {"measurement": "IC50", "setting": "[2]; Homo sapiens, MCF7, 48 h", "result": "12 ± 1", "unit": "nM"}, {"measurement": "CrC (critical concentration)", "setting": "[3]", "result": "12.3 ± 0.6", "unit": "µM"}, {"measurement": "G0/G1", "setting": "[4]; 2 µM", "result": "31 ± 1", "unit": "%"}, {"measurement": "G2/M", "setting": "[4]; 2 µM", "result": "51 ± 2", "unit": "%"}, {"measurement": "S", "setting": "[4]; 2 µM", "result": "18 ± 1", "unit": "%"}, {"measurement": "cells accumulated in the G2/M phase", "setting": "[4]; concentration per compound as in Tables 6 and 7, control 14%", "result": "more than 50%"}, {"measurement": "downregulation of VEGF gene expression", "setting": "[5]; [8]", "result": "more than 60%"}, {"measurement": "mrna remaining at 0.007 µM", "setting": "[5]; [9]", "result": 15, "unit": "%"}, {"measurement": "downregulation of c-Myc gene expression", "setting": "[6]; [8]", "result": "more than 60%"}, {"measurement": "mrna remaining at 0.007 µM", "setting": "[6]; [9]", "result": 37, "unit": "%"}]}
{"smiles": "COc1ccc(/C=C\\c2cc(OC)c(OC)c(OC)c2)cc1NC(=O)[C@@H](N)CCSC", "note": "[Compound 8.9]", "values": [{"measurement": "IC50", "setting": "[1]; Homo sapiens, HT-29, 48 h", "result": "< 5", "unit": "nM"}, {"measurement": "IC50", "setting": "[1]", "result": "4.9 ± 0.1", "unit": "nM"}, {"measurement": "IC50", "setting": "[2]; Homo sapiens, MCF7, 48 h", "result": "< 5", "unit": "nM"}, {"measurement": "IC50", "setting": "[2]", "result": "3.4 ± 1.2", "unit": "nM"}, {"measurement": "CrC (critical concentration)", "setting": "[3]", "result": "8.5 ± 1.2", "unit": "µM"}, {"measurement": "G0/G1", "setting": "[4]; 0.2 µM", "result": "30 ± 1", "unit": "%"}, {"measurement": "G2/M", "setting": "[4]; 0.2 µM", "result": "51 ± 2", "unit": "%"}, {"measurement": "S", "setting": "[4]; 0.2 µM", "result": "19 ± 1", "unit": "%"}, {"measurement": "mrna remaining at 0.004 µM", "setting": "[5]; [10]", "result": 48, "unit": "%"}, {"measurement": "mrna remaining at 0.004 µM", "setting": "[6]; [10]", "result": 70, "unit": "%"}]}
